Experimental data published in patent US20240174631A1, “COMPOUNDS, COMPOSITIONS, AND METHODS FOR MODULATING FGF ACTIVITY” (Recovery Therapeutics, Inc., priority 2021, published 2024).

Test: Body weight pre- and post-MCAO
Assay type: in vivo
Settings: rat MCAO; 10 mg/kg i.v. on Day 1, 2 and 3 after MCAO
Procedure: The rats were randomly assigned into two groups of ten each. Each group was injected intravenously (i.v.) with 2 ml/kg Compound 2 at 10 mg/kg or vehicle (18% Cremophor RH40 and 10% DMSO in 5% dextrose solution (D5WW)) on Day 1, 2, and 3 after MCAO. Day 0 is the day of the MCAO, and the days after the MCAO are numbered consecutively (Day 1, Day 2, Day 3, etc.) D-pre represents the day prior to the MCAO.
Typically, after an initial rapid rise, there is a continued slow, steady, and partial improvement in sensorimotor function (as measured by forelimb and hindlimb placing and body swing tests) during the first three weeks after stroke. […] The normal rise in body weight following surgery was not affected by treatment with Compound 2.

With `CCN(CC)c1ccc2c(c1)CCN(C1CCN(C(c3ccccc3)c3ccccc3)CC1)C2` [Compound 2, 2-(1-benzhydrylpiperidin-4-yl)-N,N-diethyl-1,2,3,4-tetrahydroisoquinolin-6-amine] the “rise in body weight following surgery” value was “not affected”.
